# Source: ChEMBL document CHEMBL1132836, “2-Aryl tryptamines: selective high-affinity antagonists for the h5-HT2A receptor” (Bioorg Med Chem Lett, 2000)
# How the values were obtained:
# [1] = target: T1, 5-hydroxytryptamine receptor 2C (Homo sapiens, UniProt P28335); experiment: Displacement of [H]-mesulergine from CHO cells expressing human 5-hydroxytryptamine 2C receptor.; assay type: cell-based
# T1 sequence (P28335 whole entry): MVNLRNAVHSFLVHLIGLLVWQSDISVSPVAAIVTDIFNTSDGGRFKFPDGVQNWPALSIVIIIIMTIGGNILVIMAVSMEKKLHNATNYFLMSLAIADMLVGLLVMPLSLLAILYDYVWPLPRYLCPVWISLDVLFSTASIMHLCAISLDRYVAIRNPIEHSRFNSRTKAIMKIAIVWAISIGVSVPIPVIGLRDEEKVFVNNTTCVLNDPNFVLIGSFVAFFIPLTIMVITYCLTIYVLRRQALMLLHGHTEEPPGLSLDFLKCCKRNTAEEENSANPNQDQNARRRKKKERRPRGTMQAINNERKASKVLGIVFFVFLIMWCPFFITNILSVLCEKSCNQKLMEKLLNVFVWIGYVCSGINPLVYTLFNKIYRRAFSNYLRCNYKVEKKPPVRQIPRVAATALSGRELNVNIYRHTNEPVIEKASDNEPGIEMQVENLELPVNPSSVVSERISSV
# D(2) dopamine receptor = D(2) dopamine receptor (Homo sapiens, UniProt P14416); experiment: biochemical
# Description: Displacement of [3H]spiperone from CHO cells expressing human Dopamine receptor D2.
# [2] = target: 5-hydroxytryptamine receptor 2A (Homo sapiens, UniProt P28223); experiment: Displacement of [3H]ketanserin from CHO cells expressing human 5-hydroxytryptamine 2A receptor.; assay type: cell-based
Structure (SMILES),Ki [1] [µM],Ki (D(2) dopamine receptor) [µM],Ki [2] [µM]
c1ccc(-c2[nH]c3ccccc3c2CCN2CCC2)cc1,> 1,> 1,0.044
C[C@@H]1CCCCN1CCc1c(-c2ccccc2)[nH]c2ccccc12,0.036,0.021,0.00018
CCN(C)CCc1c(-c2ccco2)[nH]c2ccccc12,> 1,> 1,> 1
c1ccc(-c2[nH]c3ccccc3c2CCN2CCCC2)cc1,0.26,> 1,0.009
c1ccc(-c2[nH]c3ccccc3c2CCN2CCCCC2)cc1,0.268,0.896,0.0026
CCN(CC)CCc1c(-c2ccccc2)[nH]c2ccccc12,0.16,> 1,0.0028
CN(C)CCc1c(-c2ccccc2)[nH]c2ccccc12,0.18,> 1,0.0044
CCN(C)CCc1c(-c2cccc([N+](=O)[O-])c2)[nH]c2ccccc12,0.036,0.039,0.00014
C[C@H]1CCCCN1CCc1c(-c2ccccc2)[nH]c2ccccc12,0.23,0.29,0.004
